# Key:
# [1] = system: arrhythmia induced by an intravenous administration of calcium chloride; experiment: Antiarrhythmic activity on a model of arrhythmia induced by intravenous calcium chloride (antagonism to calcium) in mice; type: in vivo; settings: white mice, 20-40 minutes before
# Procedure, shortened: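 Urethane-anaesthetised (1,200 mg/kg i.p.) white mice of both sexes, 18-25 g, with lead II ECG; 2% CaCl2 infused into the tail vein at 0.01 ml per 2 sec. Doses of CaCl2 producing arrhythmia and heart arrest were determined. Test compounds were given i.p. 20-40 min before infusion.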
# [2] = in vivo; settings: mouse, in vivo, ip
# Procedure, shortened: (§1)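 Acute toxicity in white mice of 20-25 g, with compounds given intraperitoneally as aqueous solutions or Twin-80 suspensions. Animals observed for 10 days.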
# [3] = system: white mice; experiment: in vivo
# Procedure, shortened: as §1
# [4] = currently employed in medicine; cited from earlier work
# [5] = white mice, intraperitoneal, relative to quinidine
Compound,Dose of calcium chloride causing arrythmia in animals under experiment ([1]; intraperitoneal dose 3 mg/kg),Dose of calcium chloride causing death in animals under experiment ([1]; intraperitoneal dose 3 mg/kg),Dose of calcium chloride causing arrythmia in animals under experiment ([1]; intraperitoneal dose 10 mg/kg),Dose of calcium chloride causing death in animals under experiment ([1]; intraperitoneal dose 10 mg/kg),LD50 at 240 h [2] [mg/kg],"Relative toxisity to quinidine [3, 5]","acute toxicity (in words, background) [4]",Dose of calcium chloride causing arrythmia in animals under experiment ([1]; intraperitoneal dose 30 mg/kg),Dose of calcium chloride causing death in animals under experiment ([1]; intraperitoneal dose 30 mg/kg),Dose of calcium chloride causing arrythmia in animals under experiment ([1]; intraperitoneal dose 5 mg/kg),Dose of calcium chloride causing death in animals under experiment ([1]; intraperitoneal dose 5 mg/kg),Dose of calcium chloride causing arrythmia in animals under experiment ([1]; intraperitoneal dose 25 mg/kg),Dose of calcium chloride causing death in animals under experiment ([1]; intraperitoneal dose 25 mg/kg),"Relative toxisity to quinidine ([3]; mouse, in vivo, ip, 14400 min)",Dose of calcium chloride causing arrythmia in animals under experiment ([1]; intraperitoneal dose 15 mg/kg),Dose of calcium chloride causing death in animals under experiment ([1]; intraperitoneal dose 15 mg/kg)
"C=C[C@H]1C[N@@]2CC[C@H]1C[C@@H]2[C@@H](O)c1ccnc2ccc(OC)cc12 [Quinidine, quinidine, reference compound]","126,9 mg/kg","136,0 mg/kg","120,8 mg/kg","133,5 mg/kg",156,1,high acute toxicity,–,–,–,–,–,–,–,–,–
"CCN(CC)CCNC(=O)c1ccc(N)cc1 [Procaineamide, procaine amide, reference compound]",–,–,"116,0 mg/kg","120,0 mg/kg",290,–,high acute toxicity,"127,0 mg/kg","138,0 mg/kg",–,–,–,–,–,–,–
"COC(=O)CCN(C(=O)Nc1ccc(NC(=O)N(CCC(=O)OC)N(C)C)cc1)N(C)C [I-4, 3-(2,2-dimethyl-1-p-/2-dimethylamino-2-methylpropionato-2'-yl-ureido-1-yl/anilinocarbanylhydrazino)-methylpropionate]",–,–,–,–,8000,–,–,–,–,"86,0 mg/kg","110,0 mg/kg","103,7 mg/kg","115,0 mg/kg","51,3",–,–
"CNC(=O)N(CCC#N)N(C)C [I-21, 3-(2,2-dimethyl-1-methylcarbamoylhydrazino)propionitrile]",–,–,–,–,1800,–,–,–,–,"87,5 mg/kg","111,5 mg/kg","113,6 mg/kg","128,0 mg/kg","11,5",–,–
"CNC(=O)N(CCC(=O)OC)N(C)C [I-2, 3-(2,2-Dimethyl-1-methylcarbamoylhydrazino)-methylpropionate]",–,–,–,–,2300,–,–,–,–,"112,0 mg/kg","128,5 mg/kg",–,–,"14,7","124,5 mg/kg","140,6 mg/kg"
"COC(=O)C(C)CN(C(N)=O)N(C)C (stereo not shown) [I-11, 3-(2,2-dimethyl-1-carbamoylhydrazino)-2-methyl-methylpropionate]",–,–,–,–,1850,–,–,–,–,"100,3 mg/kg",147 mg/kg,–,–,"11,8","130,7 mg/kg","136,3 mg/kg"
"COC(=O)CC(C(=O)OC)N(C(=O)NCCCCCCNC(=O)N(C(CC(=O)OC)C(=O)OC)N(C)C)N(C)C (stereo not shown) [I-57, 3-(2,2-dimethyl-1-/ε-(2-dimethylamino-2-dimethylsuccinato-2'-ylureido-1-yl)hexylcarbamoyl/hydrazino)-2-methoxycarbonylmethylpropionate]",–,–,–,–,> 3000,–,–,–,–,"103,5 mg/kg","115,0 mg/kg",–,–,"> 19,2","132,6 mg/kg","150,0 mg/kg"
"CCCCCCCCCCCCCCCCCC(=O)N(CCC(=O)OC)N(C)C [I-28, 3-(2,2-dimethyl-1-octadecanoylhydrazino)methylpropionate]",–,–,–,–,6150,–,–,–,–,"90,1 mg/kg",108 mg/kg,"133,8 mg/kg",143 mg/kg,"39,4",–,–
C=CCNC(=S)N(CCC(N)=O)N(C)C [I-18],–,–,–,–,2900,–,–,–,–,127 mg/kg,"160,5 mg/kg",–,–,"18,6",153 mg/kg,168 mg/kg
"CCC(=O)N(CCC#N)N(C)C [I-62, 3-(2,2-dimethyl-1-propionylhydrazino)-propionitrile]",–,–,–,–,930,"5,9",–,–,–,"96,5 mg/kg","120,5 mg/kg",–,–,–,"98,7 mg/kg","118,5 mg/kg"
"COC(=O)CCN(C(=O)c1ccc(Br)cc1)N(C)C [I-32, 3-(2,2-dimethyl-1-(4'-bromophenylcarbonyl)hydrazino)methylpropionate]",–,–,–,–,1680,–,–,–,–,"90,3 mg/kg","105,5 mg/kg",–,–,"10,7","100,0 mg/kg","110,0 mg/kg"
"CCCCCC(=O)N(CC(C)C(=O)OC)N(C)C (stereo not shown) [I-38, 3-(2,2-dimethyl-1-hexanoylhydrazino)-2-methylmethylpropionate]",–,–,–,–,1930,–,–,–,–,"102,0 mg/kg","115,8 mg/kg",–,–,"12,3","96,5 mg/kg","120,0 mg/kg"
"COC(=O)CCN(C(=O)c1ccccc1)N(C)C [I-29, 3-(2,2-dimethyl-1-benzoylhydrazino)methylpropionate]",–,–,–,–,3500,–,–,–,–,"97,6 mg/kg","109,5 mg/kg","140,2 mg/kg","142,0 mg/kg","22,4",–,–
"CCOC(=O)CCN(C(=O)c1ccccc1F)N(C)C [I-45, 3-/2,2-dimethyl-1-(2'-fluorobenzoyl)-hydrazino/ethylpropionate]",–,–,–,–,1480,–,–,–,–,"95,0 mg/kg","112,5 mg/kg",–,–,"9,4","102,8 mg/kg","125,0 mg/kg"

# — US4633014A, “Substituted 3-hydrazinopropionates” (priority 1983, dated 1986)
